Consider 28 compounds from patent US8697739B2, “Bicyclic acetyl-CoA carboxylase inhibitors and uses thereof” (Novartis AG, priority 2010, dated 2014).

T1 sequence (O00763 144-2458): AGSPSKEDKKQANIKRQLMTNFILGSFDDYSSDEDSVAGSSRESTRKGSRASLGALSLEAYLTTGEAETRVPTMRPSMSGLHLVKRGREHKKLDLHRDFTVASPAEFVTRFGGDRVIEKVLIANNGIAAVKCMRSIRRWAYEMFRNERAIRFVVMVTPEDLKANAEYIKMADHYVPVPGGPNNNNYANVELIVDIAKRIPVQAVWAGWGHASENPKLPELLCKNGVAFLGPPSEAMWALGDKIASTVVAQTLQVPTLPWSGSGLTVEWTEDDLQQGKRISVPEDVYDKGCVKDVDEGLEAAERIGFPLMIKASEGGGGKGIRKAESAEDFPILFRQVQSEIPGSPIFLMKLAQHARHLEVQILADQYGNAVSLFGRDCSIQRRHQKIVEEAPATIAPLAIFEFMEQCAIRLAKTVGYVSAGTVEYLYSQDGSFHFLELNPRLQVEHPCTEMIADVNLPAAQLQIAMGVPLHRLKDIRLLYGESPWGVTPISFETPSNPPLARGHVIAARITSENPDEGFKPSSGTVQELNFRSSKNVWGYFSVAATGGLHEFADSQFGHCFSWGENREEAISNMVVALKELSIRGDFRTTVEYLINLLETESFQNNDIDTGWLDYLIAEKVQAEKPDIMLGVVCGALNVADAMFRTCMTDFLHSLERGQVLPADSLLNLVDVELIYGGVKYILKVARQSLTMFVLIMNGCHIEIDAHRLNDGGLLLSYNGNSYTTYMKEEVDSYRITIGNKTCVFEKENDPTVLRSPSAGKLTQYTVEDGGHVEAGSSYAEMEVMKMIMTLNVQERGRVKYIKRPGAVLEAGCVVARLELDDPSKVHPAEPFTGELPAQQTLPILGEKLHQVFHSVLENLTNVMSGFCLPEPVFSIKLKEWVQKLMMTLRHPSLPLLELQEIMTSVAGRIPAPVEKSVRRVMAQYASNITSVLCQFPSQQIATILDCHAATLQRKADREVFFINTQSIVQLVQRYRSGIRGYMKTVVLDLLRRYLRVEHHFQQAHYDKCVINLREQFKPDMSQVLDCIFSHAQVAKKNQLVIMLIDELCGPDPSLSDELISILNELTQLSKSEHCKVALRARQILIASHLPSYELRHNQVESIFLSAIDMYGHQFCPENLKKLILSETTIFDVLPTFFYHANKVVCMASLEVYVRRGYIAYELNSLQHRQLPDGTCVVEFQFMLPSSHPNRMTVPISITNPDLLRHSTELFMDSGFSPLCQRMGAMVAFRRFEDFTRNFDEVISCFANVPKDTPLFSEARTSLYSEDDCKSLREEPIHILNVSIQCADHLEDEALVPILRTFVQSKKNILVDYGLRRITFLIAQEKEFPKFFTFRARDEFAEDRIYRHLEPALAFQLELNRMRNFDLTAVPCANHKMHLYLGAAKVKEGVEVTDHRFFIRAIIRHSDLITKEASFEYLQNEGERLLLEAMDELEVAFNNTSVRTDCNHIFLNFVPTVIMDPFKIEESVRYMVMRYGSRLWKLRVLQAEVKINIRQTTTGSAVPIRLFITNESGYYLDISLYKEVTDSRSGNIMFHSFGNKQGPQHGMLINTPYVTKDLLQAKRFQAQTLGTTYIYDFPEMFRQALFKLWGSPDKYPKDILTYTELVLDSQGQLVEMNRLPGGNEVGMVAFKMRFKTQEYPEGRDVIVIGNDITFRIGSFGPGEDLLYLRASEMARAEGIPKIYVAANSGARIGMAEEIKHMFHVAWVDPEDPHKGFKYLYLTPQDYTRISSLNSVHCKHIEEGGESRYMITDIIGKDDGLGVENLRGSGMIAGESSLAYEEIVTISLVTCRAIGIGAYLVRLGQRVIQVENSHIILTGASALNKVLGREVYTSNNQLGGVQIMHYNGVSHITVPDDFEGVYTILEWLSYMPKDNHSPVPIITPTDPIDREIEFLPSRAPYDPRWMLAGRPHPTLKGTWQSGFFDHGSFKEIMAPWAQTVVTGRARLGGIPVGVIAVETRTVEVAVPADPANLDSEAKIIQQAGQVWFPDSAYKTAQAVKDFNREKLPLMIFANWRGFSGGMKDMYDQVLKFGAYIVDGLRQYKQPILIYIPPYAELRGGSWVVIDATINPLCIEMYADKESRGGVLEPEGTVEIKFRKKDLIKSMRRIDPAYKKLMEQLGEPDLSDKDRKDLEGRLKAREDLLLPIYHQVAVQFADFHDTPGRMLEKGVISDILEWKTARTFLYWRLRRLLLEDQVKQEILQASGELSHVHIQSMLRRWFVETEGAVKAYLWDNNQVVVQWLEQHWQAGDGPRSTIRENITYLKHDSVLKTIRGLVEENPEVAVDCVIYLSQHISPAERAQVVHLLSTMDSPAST

The assay concerns the target T1, human acetyl-CoA carboxylase 2 (ACC2) (Homo sapiens, UniProt O00763).
T1 construct: The cDNA encoding amino acids 144 to 2458 of human acetyl-CoA carboxylase 2; made in house; host or cells: Sf9 insect cells (baculovirus, pFastBac1)
Put plainly: Acetyl-CoA carboxylase enzyme assay (malonyl-CoA formation by LC/MS/MS). As to conditions: recombinant human ACC2 (aa 144-2458); read-out: IC50 ACC2. In kind it is biochemical. In outline: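 Malonyl-CoA formation was read by LC/MS/MS MRM against a [13C3]-malonyl-CoA internal standard, after acetic acid quench. The enzyme was baculovirus/Sf9-expressed human ACC2 residues 144–2458, given 15 minutes room-temperature compound preincubation in HEPES pH 7.5 buffer with MgCl2, citrate and DTT. Substrate solution held 50 μM acetyl-CoA, 120 μM ATP and 2 mM KHCO3.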
With `COC1CCN(C(=O)[C@H]2CC[C@H](NS(=O)(=O)c3ccc4[nH]c(-c5ccccc5)nc4c3)CC2)CC1` [Example 669, N-((1r,4r)-4-(4-methoxypiperidine-1-carbonyl)cyclohexyl)-2-phenyl-1H-benzo[d]imidazole-5-sulfonamide], the 50% inhibitory concentration (IC50) (as a rule, the point on the concentration scale where inhibition reaches its midpoint) amounted to 362 nM.
Consider `COCCc1ccc(-c2[nH]c3cc(S(=O)(=O)N[C@H]4CC[C@H](C(=O)N5CCOC[C@@H]5C(C)C)CC4)ccc3c2Cl)cc1` [Example 461, 3-chloro-N-((1S,4r)-4-((S)-3-isopropylmorpholine-4-carbonyl)cyclohexyl)-2-(4-(2-methoxyethyl)phenyl)-1H-indole-6-sulfonamide], for which the concentration for half-maximal inhibition (IC50) was less than 10 nM.
As for `C[C@@H](NC(=O)[C@H]1CC[C@H](NS(=O)(=O)c2ccc3cc(-c4ccccc4C(F)(F)F)[nH]c3c2)CC1)c1ccc(F)cc1` [Example 329, (1r,4R)-N-((R)-1-(4-fluorophenyl)ethyl)-4-(2-(2-(trifluoromethyl)phenyl)-1H-indole-6-sulfonamido)cyclohexanecarboxamide], the IC50 was 120 nM.
With `C[C@@H](NC(=O)[C@H]1CC[C@H](NS(=O)(=O)c2ccc3c(c2)NCCN3)CC1)c1ccc(F)cc1` [Example 149, (1r,4R)-N-((R)-1-(4-fluorophenyl)ethyl)-4-(1,2,3,4-tetrahydroquinoxaline-6-sulfonamido)cyclohexanecarboxamide], the 50% inhibitory concentration (IC50) was 290 nM.
As to `CC(NC(=O)[C@H]1CC[C@H](NS(=O)(=O)c2cnc3ccccc3c2)CC1)c1ccc(F)cc1F` (stereo partly shown) [Example 67, (1r,4r)-N-(1-(2,4-difluorophenyl)ethyl)-4-(quinoline-3-sulfonamido)cyclohexanecarboxamide], the IC50 amounted to 240 nM.
In the case of `O=C([C@H]1CC[C@H](NS(=O)(=O)c2ccc3c(c2)CCCN3)CC1)N1CCNCC1c1ccccc1` (stereo partly shown) [Example 175, N-((1r,4r)-4-(2-phenylpiperazine-1-carbonyl)cyclohexyl)-1,2,3,4-tetrahydroquinoline-6-sulfonamide], the IC50 was determined as 120 nM.
Regarding `Cc1ccccc1-c1cc2ccc(S(=O)(=O)N[C@H]3CC[C@H](C(=O)N4CCCC4c4ccccc4)CC3)cc2[nH]1` (stereo partly shown) [Example 335, N-((1r,4r)-4-(2-phenylpyrrolidine-1-carbonyl)cyclohexyl)-2-o-tolyl-1H-indole-6-sulfonamide], the IC50 came out at 25 nM.
For the compound `COC[C@H]1CCCN1C(=O)[C@H]1CC[C@H](NS(=O)(=O)c2ccc3c(C#N)c(C4CC4)n(C)c3c2)CC1` [Example 418, 3-cyano-2-cyclopropyl-N-((1R,4r)-4-((R)-2-(methoxymethyl)pyrrolidine-1-carbonyl)cyclohexyl)-1-methyl-1H-indole-6-sulfonamide], the IC50 was found to be 65 nM.
Under `CN1CCN(c2ccc3cc(S(=O)(=O)NC4CCC(C(=O)N5CCNCC5c5ccccc5)CC4)ccc3n2)CC1` (stereo not shown) [Example 259, 2-(4-methylpiperazin-1-yl)-N-((1r,4r)-4-(2-phenylpiperazine-1-carbonyl)cyclohexyl)quinoline-6-sulfonamide] stands 450 nM; under `O=C([C@H]1CC[C@H](NS(=O)(=O)c2cnc3c(c2)NCCS3)CC1)N1CCOCC1c1ccccc1` (stereo partly shown) [Example 193, N-((1r,4r)-4-(3-phenylmorpholine-4-carbonyl)cyclohexyl)-2,3-dihydro-1H-pyrido[2,3-b][1,4]thiazine-7-sulfonamide], 15 nM; under `C[C@@H](NC(=O)[C@H]1CC[C@H](NS(=O)(=O)c2ccc3cc(-c4ccccc4)[nH]c3c2)CC1)c1ccccn1` [Example 19, (1r,4R)-4-(2-phenyl-1H-indole-6-sulfonamido)-N—((R)-1-(pyridin-2-yl)ethyl)cyclohexanecarboxamide], 56 nM.
In the case of `Cn1c(-c2ccccc2)cc2ccc(S(=O)(=O)N[C@H]3CC[C@H](C(=O)N4CCCC(C(C)(C)O)C4)CC3)cc21` (stereo partly shown) [Example 378, N-((1r,4r)-4-(3-(2-hydroxypropan-2-yl)piperidine-1-carbonyl)cyclohexyl)-1-methyl-2-phenyl-1H-indole-6-sulfonamide], the half-inhibitory concentration (IC50) was 10 nM.
The same measure for `Cc1cc(CO)ccc1-c1cc2ccc(S(=O)(=O)N[C@H]3CC[C@H](C(=O)N4CCNC(C(F)(F)F)C4)CC3)cc2n1C` (stereo partly shown) [Example 318, 2-(4-(hydroxymethyl)-2-methylphenyl)-1-methyl-N-((1r,4r)-4-(3-(trifluoromethyl)piperazine-1-carbonyl)cyclohexyl)-1H-indole-6-sulfonamide]: 515 nM.
With `O=C(NCCc1cccnc1)[C@H]1CC[C@H](NS(=O)(=O)c2ccc3[nH]c(-c4ccccc4)nc3c2)CC1` [Example 643, (1r,4r)-4-(2-phenyl-1H-benzo[d]imidazole-5-sulfonamido)-N-(2-(pyridin-3-yl)ethyl)cyclohexanecarboxamide], the IC50 was 283 nM.
Take `CC(C)N(C)C(=O)[C@H]1CC[C@H](NS(=O)(=O)c2ccc3[nH]c(-c4cccnc4)cc3c2)CC1` [Example 288, (1r,4r)-N-isopropyl-N-methyl-4-(2-(pyridin-3-yl)-1H-indole-5-sulfonamido)cyclohexanecarboxamide]: the IC50 was 400 nM.
For the compound `C[C@@H](NC(=O)[C@H]1CC[C@H](NS(=O)(=O)c2ccc3c(c2)N(CC(=O)O)CCC3)CC1)c1ccc(F)cc1` [Example 166, 2-(7-(N-((1R,4r)-4-((R)-1-(4-fluorophenyl)ethylcarbamoyl)cyclohexyl)sulfamoyl)-3,4-dihydroquinolin-1(2H)-yl)acetic acid], the IC50 was determined as 910 nM.
`COCCOc1ccc(-c2cc3ccc(S(=O)(=O)N[C@H]4CC[C@H](C(=O)N5CCOC(C)(C)C5)CC4)cc3n2C)cc1` [Example 450, N-((1r,4r)-4-(2,2-dimethylmorpholine-4-carbonyl)cyclohexyl)-2-(4-(2-methoxyethoxy)phenyl)-1-methyl-1H-indole-6-sulfonamide]: the IC50 worked out at 130 nM.
Under `CC(C)n1c(-c2ccc(F)cc2)c(Cl)c2ccc(S(=O)(=O)N[C@H]3CC[C@H](C(=O)N4CCNC(C(F)(F)F)C4)CC3)cc21` (stereo partly shown) [Example 350, 3-chloro-2-(4-fluorophenyl)-1-isopropyl-N-((1r,4r)-4-(3-(trifluoromethyl)piperazine-1-carbonyl)cyclohexyl)-1H-indole-6-sulfonamide] stands 470 nM; under `Cn1c(-c2ccccc2)cc2ccc(S(=O)(=O)N[C@H]3CC[C@H](C(=O)N4CCOC(C)(C)C4)CC3)cc21` [Example 442, N-((1r,4r)-4-(2,2-dimethylmorpholine-4-carbonyl)cyclohexyl)-1-methyl-2-phenyl-1H-indole-6-sulfonamide], 40 nM; under `COc1ccc(-c2cc3ccc(S(=O)(=O)N[C@H]4CC[C@H](C(=O)N[C@@H](CO)C5CC5)CC4)cc3n2C)cc1` [Example 445, (1r,4R)-N-((R)-1-cyclopropyl-2-hydroxyethyl)-4-(2-(4-methoxyphenyl)-1-methyl-1H-indole-6-sulfonamido)cyclohexanecarboxamide], 15 nM.
Turning to `Cn1c(-c2ccc(CCC(=O)O)cc2)cc2ccc(S(=O)(=O)N[C@H]3CC[C@H](C(=O)N4CCC[C@@H]4C(F)(F)F)CC3)cc21` [Example 397, 3-(4-(1-methyl-6-(N-((1R,4r)-4-((R)-2-(trifluoromethyl)pyrrolidine-1-carbonyl)cyclohexyl)sulfamoyl)-1H-indol-2-yl)phenyl)propanoic acid], the concentration for half-maximal inhibition (IC50) was less than 10 nM.
As to `C[C@@H](NC(=O)[C@H]1CC[C@H](NS(=O)(=O)c2ccc3c(ccn3C)c2)CC1)c1ccc(F)cc1` [Example 12, (1r,4R)—N—((R)-1-(4-fluorophenyl)ethyl)-4-(1-methyl-1H-indole-5-sulfonamido)cyclohexanecarboxamide], the IC50 came out at 55 nM.
Under `Cn1c(-c2ccccc2)cc2cc(S(=O)(=O)N[C@H]3CC[C@H](C(=O)N[C@@H](c4ccccc4)C(C)(C)C(=O)O)CC3)ccc21` [Example 97, (S)-2,2-dimethyl-3-((1r,4S)-4-(1-methyl-2-phenyl-1H-indole-5-sulfonamido)cyclohexanecarboxamido)-3-phenylpropanoic acid] stands less than 10 nM.
The same measure for `CC(C)c1nnc([C@H]2CC[C@H](NS(=O)(=O)c3ccc4[nH]c(-c5ccc(N6CCOCC6)cc5)nc4c3)CC2)o1` [Example 589, N-((1r,4r)-4-(5-isopropyl-1,3,4-oxadiazol-2-yl)cyclohexyl)-2-(4-morpholinophenyl)-1H-benzo[d]imidazole-5-sulfonamide]: 516 nM; for `Cn1c(C2CC2)c(C#N)c2ccc(S(=O)(=O)N[C@H]3CC[C@H](C(=O)N4CCCC4C(C)(C)C)CC3)cc21` (stereo partly shown) [Example 390, N-((1r,4r)-4-(2-tert-butylpyrrolidine-1-carbonyl)cyclohexyl)-3-cyano-2-cyclopropyl-1-methyl-1H-indole-6-sulfonamide]: 10 nM.
Under `CC(C)(C)c1nnc([C@H]2CC[C@H](NS(=O)(=O)c3ccc4[nH]c(C5CC5)nc4c3)CC2)o1` [Example 651, N-((1r,4r)-4-(5-tert-butyl-1,3,4-oxadiazol-2-yl)cyclohexyl)-2-cyclopropyl-1H-benzo[d]imidazole-5-sulfonamide] stands 6350 nM; under `C[C@@H](NC(=O)[C@H]1CC[C@H](NS(=O)(=O)c2ccc3nc(OCCN(C)C)ccc3c2)CC1)c1ccc(F)cc1` [Example 69, (1r,4R)-4-(2-(2-(dimethylamino)ethoxy)quinoline-6-sulfonamido)-N-((R)-1-(4-fluorophenyl)ethyl)cyclohexanecarboxamide], 50 nM.
On to `Cc1ccccc1-c1cc2ccc(S(=O)(=O)N[C@H]3CC[C@H](C(=O)N[C@H](C)c4ccc(F)cc4)CC3)cc2[nH]1` [Example 292, (1r,4R)-N-((R)-1-(4-fluorophenyl)ethyl)-4-(2-o-tolyl-1H-indole-6-sulfonamido)cyclohexanecarboxamide], for which the IC50 came to 12 nM.
